The source of these data is US7045516B1, “Benzoxazole derivatives and drugs containing the same as the active ingredient” (Koichi Shudo, priority 1998, dated 2006).

One data set is described as follows: Reverse mutation test. As to the method:
A reverse mutagenicity test was performed using the compound of Example 1 (b) of the present specification, hydrochloride of 5,7-dimethyl-2-(1-piperazinyl)benzoxazole (C), hydrochloride of 5-chloro-7-methyl-2-(4-methyl-1-piperazinyl)benzoxazole (D), and hydrochloride of 5-chloro-7-methyl-2-(4-methyl-1-homopiperazinyl) benzoxazole (E) (compounds disclosed in Japanese Patent Publication (KOKAI) No. 10-29987/1998), and the compound described in Reference Example 4 of the present specification, i.e., hydrochloride of 5-chloro-7-methyl-2-(1-piperazinyl) benzoxazole (F) according to the method of T. Matsushima et al. (Noropoth K. H., Springer, Berlin-Heidelberg-New York, “Short-Term Test Systems For Detecting Carcinogens”, pp. 273–285, 1980) referred by the guideline 471 of ORGANIZATION FOR ECONOMIC CO-OPERATION AND DEVELOPMENT.

Data set [1] can be described thus: Toxicity test, oral administration to mice. Format: in vivo. The settings on record: 300 mg/kg, suspended in distilled water, 7-week old male mice. As to the method:
The compound of Example 1 (b) gave no death of the animal at a dose of 300 mg/kg.

Data set [2] relates to rat diarrhea under restriction stress. The data set can be described thus: Inhibitory action for rat diarrhea under restriction stress. Format: in vivo. The settings on record: oral, 30 min before restraint, male Wistar rats, 3 hours, nonlinear least square method. The procedure:
L. Williams et al. [GASTROENTEROLOGY, 94, 611–621 (1988)] was determined as follows, and the results were analyzed by the nonlinear least square method. 8-Week old male Wistar rats were starved from the evening of the day before the test. Each test compound was orally administered to the rats. After 30 minutes, the rats were constrained by binding of their fore-limbs and hind-limbs with wires. The rats were left in individual gages on white sheets under luminescent lamps for 3 hours. […] The test was performed with groups of rats each consisting of 8 rats.

In data set [3] the test system is large bowel transportation ability of normal mice. Nature of the data set: Effect on large bowel transportation ability of normal mice (glass bead excretion). Format: in vivo, mouse. The settings on record: ddY male mice, bead inserted after 30 minutes. The procedure: G. et al. [Drug Dev. Res., 9, 241-247, (1986)] was determined as follows. Each test compound was orally administered to 5- to 7-week old ddY male mice starved for about 4 hours. […] After the insertion of the glass bead, time (second) from the insertion to excretion of the bead from the anus was measured, and the time was used as an index of large bowel transportation ability. The test was performed by using groups of mice each consisting of 9 to 11 mice, and all of the procedures were performed under no anesthesia.

A short description of data set [4]: Metabolic activity in human liver, in vitro system with S9 fraction. Format: in vitro ADME. Particulars: 50 μmol/L test compound, 1 mg/mL human liver S9, NADPH production system, 37 °C, 15 minutes. The procedure:
The test was performed in an in vitro system utilizing human liver S9 fraction in the presence of an NADPH production system described below. A reaction mixture of a total volume of 125 μL containing components at given final concentrations was prepared (50 μmol/L of test compound, 6 mmol/L of MgCl2.6H2O, 1 mmol/L of β-NADP^+, 10 mmol/L of glucose-6-phosphate (G-6-P), 0.7 U/mL of G-6-P dehydrogenase, 100 mmol/L of potassium phosphate (pH 7.4), 0.1 mmol/L of EDTANa2, and 1 mg/mL of human liver S9), and incubated at 37 C.° for 15 minutes. The reaction was stopped by the addition of 125 μL of N,N-dimethylformamide containing a substance for internal standard. The reaction mixture was centrifuged (2,000×g, 10 minutes), and the supernatant was subjected to HPLC analysis to determine the concentration of unchanged substance. Consumed amount was calculated from the concentration of unchanged substance, and the metabolic rate was represented as activity per unit amount of protein.

Where [5] appears, read: method of Matsushima et al., OECD guideline 471.

Where two headings read alike, the source gives them in different places.

On to `Cc1cc(Cl)cc2nc(N3CCCNCC3)oc12.Cl` [Example 1 (b), 5-Chloro-2-(1-homopiperazinyl)-7-methylbenzoxazole hydrochloride], for which the reverse mutagenicity result in the data set “Reverse mutation test” is recorded as “negative”. Besides, the “death of the animal” value in data set [1] is reported as “no death”. In data set [2] (Rattus norvegicus), the ED50 was 0.25 µg/kg. The figures for the “time from insertion to excretion of glass bead” value in data set [3] (dose 3 mg/kg oral), in data set [3] (dose 10 mg/kg oral) and in data set [3] (dose 30 mg/kg oral) were 218.39 s, 313.60 s and 239.11 s, respectively.

Turning to `Cc1cc(C)c2oc(N3CCNCC3)nc2c1.Cl` [Hydrochloride of C, hydrochloride of 5,7-dimethyl-2-(1-piperazinyl)benzoxazole], the reverse mutagenicity result in “Reverse mutation test” (setting [5]) is listed as “negative”. In addition, the Metabolic activity in data set [4] was 0.06 nmol/min/mg protein. Moreover, the ED50 value in data set [2] was determined as 27.2 µg/kg. Also, the entries for the “time from insertion to excretion of glass bead” value in data set [3] (dose 3 mg/kg oral), in data set [3] (dose 10 mg/kg oral) and in data set [3] (dose 30 mg/kg oral) were 234.01 s, 251.00 s and 357.08 s, respectively.

Turning to `Cc1cc(Cl)cc2nc(N3CCN(C)CC3)oc12.Cl` [Hydrochloride of D, hydrochloride of 5-chloro-7-methyl-2-(4-methyl-1-piperazinyl) benzoxazole], the reverse mutagenicity entry in “Reverse mutation test” (setting [5]) was “negative”. Also, the Metabolic activity in data set [4] amounted to 0.87 nmol/min/mg protein.
